Laboratory results as given in patent US20120302584A1, “NOVEL SALTS FORMS OF PYRIMIDIN-5-YL ACETIC ACID DERIVATIVE” (BOEHRINGER INGELHEIM INTERNATIONAL GMBH, priority 2009, published 2012).
Converted amounts (≈) assume the structure as drawn. Structures can show the parent of a compound that is named as a salt.

Key:
[1] = Kinetic solubility in sodium dodecyl sulfate solution at pH 6.8 and 37° C.; format: physicochemical; conditions: for maximum solubility (kinetic solubility): pH 6.8, 0.2% sodium dodecyl sulfate (SDS) solution, after about 5 minutes
Protocol: FIG. 7 also depicts comparative kinetic solubility for the acid-free form of the compound of formula (I)(♦), a choline salt of the compound of formula (I)( ? ), and an ethylenediamine salt of the compound of formula (I) (▴).
After 60 minutes, the solubilities ranged from about 150 μg/mL (for the ethylenediamine salt of the compound of formula (I)) to about 245 μg/mL (for the choline salt of the compound of formula (I)).

[2] = Dynamic vapor sorption (water sorption/desorption); format: physicochemical; conditions: 25° C.; for hygroscopicity (in words): conditions used in this analysis
Protocol: Vapor sorption/desorption was carried out using Surface Measurement Systems DVS-HT. Samples were placed into a foil insert placed on a sample pan. […] The equilibrium point of each step was reached when 0.002% of weight change was reached.

[3] = pH 6.8, 0.2% SDS solution, after 60 minutes

Row | Compound | maximum solubility (kinetic solubility) [1] | hygroscopicity (in words) [2] | moisture gain through 85% relative humidity [2] | solubility after 60 minutes (kinetic solubility) [1, 3] | further results
1 | CN(C)c1nc(Cc2ccc(NC(=O)c3ccc(C(F)(F)F)cc3)cc2)nc(N(C)C)c1CC(=O)O [N-methyl-D-glucamine salt of the invention] [[4,6-bis(dimethylamino)-2-(4-{[4-(trifluoromethyl)benzoyl]amino}benzyl)pyrimidin-5-yl] acetic acid] | about 910 μg/mL | mild hygroscopicity | about 3.7% |  | 
2 | CN(C)c1nc(Cc2ccc(NC(=O)c3ccc(C(F)(F)F)cc3)cc2)nc(N(C)C)c1CC(=O)O [[4,6-bis(dimethylamino)-2-(4-{[4-(trifluoromethyl)benzoyl]amino}benzyl)pyrimidin-5-yl] acetic acid, reference compound] |  |  |  |  | solubility kinetic at 60 min ([1]; 0.2% sodium dodecyl sulfate (SDS) solution, 37 °C, pH 6.8, aqueous with cosolvent or surfactant or cyclodextrin, pH 6.8, 0.2% SDS solution, after 60 minutes): ~245 µg/mL (≈ 489 µM)
3 | CN(C)c1nc(Cc2ccc(NC(=O)c3ccc(C(F)(F)F)cc3)cc2)nc(N(C)C)c1CC(=O)O [choline salt of the compound of formula (I)] [[4,6-bis(dimethylamino)-2-(4-{[4-(trifluoromethyl)benzoyl]amino}benzyl)pyrimidin-5-yl] acetic acid, reference compound] | about 960 μg/mL |  |  |  | 
4 | CN(C)c1nc(Cc2ccc(NC(=O)c3ccc(C(F)(F)F)cc3)cc2)nc(N(C)C)c1CC(=O)O [ethylenediamine salt of the compound of formula (I)] [[4,6-bis(dimethylamino)-2-(4-{[4-(trifluoromethyl)benzoyl]amino}benzyl)pyrimidin-5-yl] acetic acid, reference compound] |  |  |  | about 150 μg/mL | maximum solubility (kinetic solubility) ([1]; listed as ethylenediame salt of the compound of formula (I)): about 670 μg/mL
5 | CN(C)c1nc(Cc2ccc(NC(=O)c3ccc(C(F)(F)F)cc3)cc2)nc(N(C)C)c1CC(=O)O [free acid form of the compound of formula (I)] [[4,6-bis(dimethylamino)-2-(4-{[4-(trifluoromethyl)benzoyl]amino}benzyl)pyrimidin-5-yl] acetic acid] | about 50 μg/mL |  |  | essentially unchanged | 
6 | CN(C)c1nc(Cc2ccc(NC(=O)c3ccc(C(F)(F)F)cc3)cc2)nc(N(C)C)c1CC(=O)O [sodium salt of the invention, [4,6-bis(dimethylamino)-2-(4-{[4-(trifluoromethyl)benzoyl]amino}benzyl)pyrimidin-5-yl] acetic acid] | about 1010 μg/mL | hygroscopic | about 17% |  | moisture gain through 55% relative humidity ([2]; 55% relative humidity): less than 2%
